Results reported in ChEMBL document CHEMBL1142232, “Inhibition of spinal microglial cathepsin S for the reversal of neuropathic pain” (Proc Natl Acad Sci U S A, 2007).
Activity calls are given as the source filed them. Where a SMILES comes first, the peptide text is derived from it. [ ]: non-standard residue; d: D form. Oic = O=C(O)[C@@H]1C[C@@H]2CCCC[C@@H]2N1; Hyp = O=C(O)[C@@H]1C[C@@H](O)CN1; dTic = O=C(O)[C@H]1Cc2ccccc2CN1; 2Thi = N[C@@H](Cc1cccs1)C(=O)O

Experiments:
[1] = tested on: Rattus norvegicus; experiment: Inhibition of rat recombinant cathepsin S-induced hyperalgesia in naive Wistar rat at 50 nmol administered 30 mins before cathepsin S challenge; assay type: functional, organism-based
[2] = species on record: Rattus norvegicus; experiment: Inhibition of rat recombinant cathepsin S-induced hyperalgesia in Wistar rat at 50 ug; assay type: functional, organism-based
[3] = species on record: Rattus norvegicus; experiment: Analgesic activity in Wistar rat partial ligation of sciatic nerve model of neuropathic pain assessed as reversal of allodynia at 30 nmol after 3 to 5 days; assay type: functional, organism-based
[4] = tested on: Rattus norvegicus; experiment: Effect on contralateral mechanical thresholds in intrathecally dosed Wistar rat partial ligation of sciatic nerve neuropathic pain model; assay type: functional, organism-based
[5] = tested on: Rattus norvegicus; experiment: Antinociceptive activity in intrathecally dosed Wistar rat partial ligation of sciatic nerve 3-day neuropathic pain model assessed as alteration of mechanical allodynia at 50 nmol; assay type: functional, organism-based
[6] = species on record: Rattus norvegicus; experiment: Analgesic activity in Wistar rat partial ligation of sciatic nerve model of neuropathic pain assessed as reversal of allodynia at 30 nmol after 7 days; assay type: functional, organism-based
[7] = tested on: Rattus norvegicus; experiment: Analgesic activity in intrathecally dosed Wistar rat partial ligation of sciatic nerve neuropathic pain model assessed as attenuation of allodynia at 50 nmol after 7 days; assay type: functional, organism-based
[8] = species on record: Rattus norvegicus; experiment: Toxicity in Wistar rat assessed as effect on motor behavior by rotarod test; assay type: organism-based; conditions: in vivo
[9] = tested on: Rattus norvegicus; experiment: Analgesic activity in intrathecally dosed Wistar rat partial ligation of sciatic nerve neuropathic pain model assessed as attenuation of allodynia at 50 nmol after 14 days; assay type: functional, organism-based
[10] = species on record: Rattus norvegicus; experiment: Effect on sarcosine-induced hyperalgesia in Wistar rat; assay type: functional, organism-based
[11] = tested on: Rattus norvegicus; experiment: Analgesic activity in intrathecally dosed Wistar rat partial ligation of sciatic nerve neuropathic pain model assessed as reduction of mechanical hyperalgesia at 10 nmol after 14 days; assay type: functional, organism-based
[12] = species on record: Rattus norvegicus; experiment: Effect on NMDA-induced hyperalgesia in Wistar rat; assay type: functional, organism-based
[13] = species on record: Rattus norvegicus; experiment: Reduction of microglial activation in Wistar rat partial ligation of sciatic nerve neuropathic pain model at 30 nmol; assay type: functional, organism-based
[14] = tested on: Rattus norvegicus; experiment: Analgesic activity in intrathecally dosed Wistar rat partial ligation of sciatic nerve neuropathic pain model assessed as reduction of mechanical hyperalgesia at 50 nmol after 14 days; assay type: functional, organism-based

Structure (SMILES) | Activity [1] | Activity [2] | Activity [3] | Activity [4] | Activity [5] | Activity [6] | Activity [7] | Activity [8] | Activity [9] | Activity [10] | Activity [11] | Activity [12] | Activity [13] | Activity [14]
N=C(N)NCCC[C@@H](N)C(=O)N[C@@H](CCCNC(=N)N)C(=O)N1CCC[C@H]1C(=O)N1C[C@H](O)C[C@H]1C(=O)NCC(=O)N[C@@H](Cc1cccs1)C(=O)N[C@@H](CO)C(=O)N1Cc2ccccc2C[C@@H]1C(=O)N1[C@H](C(=O)O)C[C@@H]2CCCC[C@@H]21 (H-[dR]RP[Hyp]G[2Thi]S[dTic][Oic]-OH) | inactive | inactive | – | – | – | – | – | – | – | – | – | – | – | –
CC(C)C[C@@H](NC(=O)N1CCOCC1)C(=O)N[C@@H](/C=C/S(=O)(=O)c1ccccc1)CCc1ccccc1 | inactive | – | inactive | inactive | inactive | Active | Active | Non-toxic | Active | inactive | Active | inactive | Active | Active
N=C(N)NCCC[C@@H](N)C(=O)N[C@@H](CCCNC(=N)N)C(=O)N1CCC[C@H]1C(=O)N1C[C@H](O)C[C@H]1C(=O)NCC(=O)N[C@@H](Cc1cccs1)C(=O)N[C@@H](CO)C(=O)N1Cc2ccccc2C[C@@H]1C(=O)N1[C@H](C(=O)N[C@@H](CCCNC(=N)N)C(=O)O)C[C@@H]2CCCC[C@@H]21 | inactive | inactive | – | – | – | – | – | – | – | – | – | – | – | –
